{"source": "BindingDB's records for doi:10.1111/cbdd.12579", "about": "(University of Karachi, 2015)", "key": {"[1]": {"target": "Carboxylic ester hydrolase (Equus caballus, UniProt Q9N1N9)", "sequence (Q9N1N9 whole entry)": "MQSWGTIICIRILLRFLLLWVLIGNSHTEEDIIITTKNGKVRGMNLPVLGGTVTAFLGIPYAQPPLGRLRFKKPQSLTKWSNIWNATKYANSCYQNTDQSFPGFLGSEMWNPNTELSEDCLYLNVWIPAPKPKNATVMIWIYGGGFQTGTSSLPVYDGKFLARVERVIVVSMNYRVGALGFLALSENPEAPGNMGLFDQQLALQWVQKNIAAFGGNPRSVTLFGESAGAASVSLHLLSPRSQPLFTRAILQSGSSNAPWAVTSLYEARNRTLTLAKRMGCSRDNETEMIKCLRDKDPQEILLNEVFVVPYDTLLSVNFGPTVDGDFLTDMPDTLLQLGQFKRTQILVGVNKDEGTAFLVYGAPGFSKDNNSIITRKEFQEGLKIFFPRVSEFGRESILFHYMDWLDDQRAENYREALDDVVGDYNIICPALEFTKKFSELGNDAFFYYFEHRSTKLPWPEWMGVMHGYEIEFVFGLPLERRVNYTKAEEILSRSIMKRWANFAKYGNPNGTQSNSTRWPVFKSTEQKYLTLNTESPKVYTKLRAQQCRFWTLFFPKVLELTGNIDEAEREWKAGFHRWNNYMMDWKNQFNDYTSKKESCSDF", "experiment": "AChE and BChE Inhibition Assay", "settings": "pH 8; 25 °C", "protocol": "(§1) A […] well plate was used for screening purpose. Each pyridopyrazine derivative was first dissolved in dimethyl sulfoxide to prepare the stock solutions. The synthetic compounds were then screened against electric eel acetylcholinesterase (eeAChE) and equine butyrylcholinesterase (BChE) at different concentrations (1 µM or 10 µM) of dimethyl sulfoxide as negative control in primarily screening. […] The reaction mixture which comprised of buffer solution (20 µL), synthetic compound (10 µL) and enzyme (0.5 and 3.4 U/mg, eeAChE or equine BChE) was primarily incubated for ten minutes at room temperature (25 C). Subsequently to the mixture, once the preincubation over, the acetylthiocholine iodide or butyrylthiocholine chloride (10 μL of 10 mM) was added and incubated it further for"}, "Acetylcholinesterase": {"target": "Acetylcholinesterase (Electrophorus electricus, UniProt O42275)", "sequence (O42275 whole entry)": "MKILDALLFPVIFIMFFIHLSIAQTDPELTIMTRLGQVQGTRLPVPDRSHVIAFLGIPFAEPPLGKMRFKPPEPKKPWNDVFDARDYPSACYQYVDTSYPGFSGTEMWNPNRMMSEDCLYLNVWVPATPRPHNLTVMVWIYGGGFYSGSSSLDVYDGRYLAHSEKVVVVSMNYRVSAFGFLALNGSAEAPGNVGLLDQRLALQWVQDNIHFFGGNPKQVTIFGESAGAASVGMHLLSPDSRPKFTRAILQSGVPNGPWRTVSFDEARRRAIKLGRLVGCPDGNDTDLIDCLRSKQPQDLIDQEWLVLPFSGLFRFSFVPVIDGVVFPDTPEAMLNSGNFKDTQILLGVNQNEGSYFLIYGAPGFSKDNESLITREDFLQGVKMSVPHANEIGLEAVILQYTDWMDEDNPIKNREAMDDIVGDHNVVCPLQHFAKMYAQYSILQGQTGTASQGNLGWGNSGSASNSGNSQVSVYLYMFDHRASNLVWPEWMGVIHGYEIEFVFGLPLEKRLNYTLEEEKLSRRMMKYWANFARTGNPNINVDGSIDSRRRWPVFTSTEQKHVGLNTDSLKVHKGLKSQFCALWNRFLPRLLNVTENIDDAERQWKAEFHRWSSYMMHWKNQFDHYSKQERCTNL", "experiment": "AChE and BChE Inhibition Assay", "settings": "pH 8; 25 °C", "protocol": "as §1"}}, "note": "pIC50: −log10 of the molar value.", "data": [{"smiles": "Brc1ccccc1-c1cnc2cccnc2n1", "note": "[3-(2′-Bromophenyl)pyrido[2,3-b]pyrazine (6k)]", "values": [{"measurement": "pIC50", "setting": "[1]", "value": 5.13}, {"measurement": "pIC50", "setting": "Acetylcholinesterase", "value": 5.39}]}, {"smiles": "Clc1ccccc1-c1cnc2cccnc2n1", "note": "[3-(2′-Chlorophenyl)pyrido[2,3-b]pyrazine (6i)]", "values": [{"measurement": "pIC50", "setting": "[1]", "value": 5.01}, {"measurement": "pIC50", "setting": "Acetylcholinesterase", "value": 5.60}]}, {"smiles": "Cc1ccccc1-c1cnc2cccnc2n1", "note": "[3-(2′-Methylphenyl)pyrido[2,3-b]pyrazine (6d)]", "values": [{"measurement": "pIC50", "setting": "[1]", "value": 4.67}, {"measurement": "pIC50", "setting": "Acetylcholinesterase", "value": 5.27}]}, {"smiles": "O=[N+]([O-])c1ccccc1-c1cnc2cccnc2n1", "note": "[3-(2′-Nitrophenyl)pyrido[2,3-b]pyrazine (6o)]", "values": [{"measurement": "pIC50", "setting": "[1]", "value": 4.65}, {"measurement": "pIC50", "setting": "Acetylcholinesterase", "value": 5.52}]}, {"smiles": "Brc1cccc(-c2cnc3cccnc3n2)c1", "note": "[3-(3′-Bromophenyl)pyrido[2,3-b]pyrazine (6j)]", "values": [{"measurement": "pIC50", "setting": "[1]", "value": 4.94}, {"measurement": "pIC50", "setting": "Acetylcholinesterase", "value": 5.51}]}, {"smiles": "Clc1cccc(-c2cnc3cccnc3n2)c1", "note": "[3-(3′-Chlorophenyl)pyrido[2,3-b]pyrazine (6h)]", "values": [{"measurement": "pIC50", "setting": "[1]", "value": 4.92}, {"measurement": "pIC50", "setting": "Acetylcholinesterase", "value": 5.90}]}, {"smiles": "Fc1cccc(-c2cnc3cccnc3n2)c1", "note": "[3-(3′-Fluorophenyl)pyrido[2,3-b]pyrazine (6f)]", "values": [{"measurement": "pIC50", "setting": "[1]", "value": 4.10}, {"measurement": "pIC50", "setting": "Acetylcholinesterase", "value": 6.05}]}, {"smiles": "Cc1cccc(-c2cnc3cccnc3n2)c1", "note": "[3-(3′-Methylphenyl)pyrido[2,3-b]pyrazine (6c)]", "values": [{"measurement": "pIC50", "setting": "[1]", "value": 6.23}, {"measurement": "pIC50", "setting": "Acetylcholinesterase", "value": 5.23}]}, {"smiles": "O=[N+]([O-])c1cccc(-c2cnc3cccnc3n2)c1", "note": "[3-(3′-Nitrophenyl)pyrido[2,3-b]pyrazine (6n)]", "values": [{"measurement": "pIC50", "setting": "[1]", "value": 5.72}, {"measurement": "pIC50", "setting": "Acetylcholinesterase", "value": 6.33}]}, {"smiles": "c1cnc2nc(-c3ccc(N4CCCCC4)cc3)cnc2c1", "note": "[3-(4′-(Piperidin-1-yl)phenyl)pyrido[2,3-b]pyrazine (6p)]", "values": [{"measurement": "pIC50", "setting": "[1]", "value": 5.41}, {"measurement": "pIC50", "setting": "Acetylcholinesterase", "value": 5.32}]}, {"smiles": "Clc1ccc(-c2cnc3cccnc3n2)cc1", "note": "[3-(4′-Chlorophenyl)pyrido[2,3-b]pyrazine (6g)]", "values": [{"measurement": "pIC50", "setting": "[1]", "value": 5.58}, {"measurement": "pIC50", "setting": "Acetylcholinesterase", "value": 5.59}]}, {"smiles": "Fc1ccc(-c2cnc3cccnc3n2)cc1", "note": "[3-(4′-Fluorophenyl)pyrido[2,3-b]pyrazine (6e)]", "values": [{"measurement": "pIC50", "setting": "[1]", "value": 4.95}, {"measurement": "pIC50", "setting": "Acetylcholinesterase", "value": 5.61}]}, {"smiles": "Ic1ccc(-c2cnc3cccnc3n2)cc1", "note": "[3-(4′-Iodophenyl)pyrido[2,3-b]pyrazine (6l)]", "values": [{"measurement": "pIC50", "setting": "[1]", "value": 4.51}, {"measurement": "pIC50", "setting": "Acetylcholinesterase", "value": 5.39}]}, {"smiles": "Cc1ccc(-c2cnc3cccnc3n2)cc1", "note": "[3-(4′-Methylphenyl)pyrido[2,3-b]pyrazine (6b)]", "values": [{"measurement": "pIC50", "setting": "[1]", "value": 5.19}, {"measurement": "pIC50", "setting": "Acetylcholinesterase", "value": 5.51}]}, {"smiles": "O=[N+]([O-])c1ccc(-c2cnc3cccnc3n2)cc1", "note": "[3-(4′-Nitrophenyl)pyrido[2,3-b]pyrazine (6m)]", "values": [{"measurement": "pIC50", "setting": "[1]", "value": 4.68}, {"measurement": "pIC50", "setting": "Acetylcholinesterase", "value": 5.71}]}, {"smiles": "c1ccc(-c2cnc3cccnc3n2)cc1", "note": "[3-Phenylpyrido[2,3-b]pyrazine (6a)]", "values": [{"measurement": "pIC50", "setting": "[1]", "value": 4.45}, {"measurement": "pIC50", "setting": "Acetylcholinesterase", "value": 5.02}]}, {"smiles": "c1cnc2nc3c(nc2c1)CCCC3", "note": "[6,7,8,9-tetrahydropyrido[2,3-b]quinoxaline (6q)]", "values": [{"measurement": "pIC50", "setting": "[1]", "value": 4.96}, {"measurement": "pIC50", "setting": "Acetylcholinesterase", "value": 5.24}]}, {"smiles": "CN(C)C(=O)Oc1cccc([N+](C)(C)C)c1", "note": "[m-Trimethylammoniumphenyldimethylcarbamate]", "values": [{"measurement": "pIC50", "setting": "[1]", "value": 4.30}]}]}
